# Laboratory results published in patent US10344019B2 (priority 2010, dated 2019).
# Like-named read-outs stand apart in the source and are kept apart here.
# What was measured:
# Format in all cases: cell-based
# [1] = tested on: HCV 1b RLuc cells (dicistronic genotype 1b Con1 replicon, RLuc reporter); assay: microbe, parasite or virus in culture; details: Hepatitis C virus, read-out: 1b (nM)
# In short: (§1)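 Renilla luciferase HCV replicon cells: dicistronic 1b Con1, 1a H77 or 2a JFH-1 replicons, or a JFH-1 chimera carrying J6 NS5A (M31 present). Compound in DMSO serial dilutions, 72 h incubation, then lysis and luciferase read. EC50 by non-linear regression.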
# [2] = tested on: HCV 2b Rluc cells (NS5A chimeric genotype 2a JFH-1 replicon with genotype 2b MD2b-1 NS5A gene, M31 present); assay: microbe, parasite or virus in culture; details: Hepatitis C virus, read-out: 2b
# In short: (§2)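 Replicon cells stably carrying the listed RLuc-encoding dicistronic replicons were seeded and treated with DMSO serial dilutions of compound (10 mM stocks) diluted into culture medium. After 72 h, cells were lysed and Renilla luciferase activity measured. EC50 was derived by non-linear regression.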
# [3] = tested on: HCV 3a RLuc cells (NS5A chimeric genotype 1b Con1 replicon with consensus genotype 3a NS5A gene); assay: microbe, parasite or virus in culture
# In short: as §2
# [4] = tested on: HCV 2a JFH-1 Rluc cells (dicistronic genotype 2a JFH-1 replicon, RLuc reporter); assay: microbe, parasite or virus in culture; details: Hepatitis C virus, read-out: 2a JFH
# In short: as §1
# [5] = tested on: HCV 4a Rluc cells (NS5A chimeric genotype 1b Con1 replicon with genotype 4a NS5A gene); assay: microbe, parasite or virus in culture; details: Hepatitis C virus, read-out: 4a
# In short: as §2
# [6] = tested on: HCV 1a RLuc cells (dicistronic genotype 1a H77 replicon, RLuc reporter); assay: microbe, parasite or virus in culture; details: Hepatitis C virus, read-out: 1a
# In short: as §1
# [7] = tested on: HCV 2a Rluc cells (NS5A chimeric genotype 2a JFH-1 replicon with genotype 2a J6 strain NS5A gene, M31 present); assay: HCV replicon reporter assay, genotype 2a J6 (M31 present); details: Hepatitis C virus, read-out: 2a J6
# In short: as §1
# [8] = Hepatitis C virus, read-out: 3a, genotype 3a replicon
# [9] = Hepatitis C virus, read-out: 3a, genotype 3a NS5A chimeric replicon
# [10] = genotype 2a JFH-1 RLuc replicon
SMILES,EC50 [1] [nM],EC50 [2] [nM],"EC50 [3, 8] [nM]",EC50 ([4]; genotype 2a JFH-1 replicon) [nM],EC50 [5] [nM],EC50 ([6]; genotype 1a replicon) [nM],EC50 [7] [nM],"EC50 [3, 9] [nM]","EC50 [4, 10] [nM]",EC50 ([6]; genotype 1a H77 RLuc replicon) [nM],EC50 ([1]; 72 h) [nM],"EC50 ([3]; Hepatitis C virus, read-out: 3a, Table 1, genotype 3a NS5A chimeric replicon) [nM]","EC50 ([4]; 72 h, Table 1, genotype 2a JFH-1 replicon, 72 hours) [nM]","EC50 ([6]; 72 h, Table 1, genotype 1a H77 replicon, 72 hours) [nM]","EC50 ([3]; read-out: 3a, genotype 3a NS5A chimeric 1b Con1 replicon) [nM]","EC50 ([4]; genotype 2a JFH-1 replicon, RLuc reporter) [nM]","EC50 ([6]; genotype 1a H77 replicon, RLuc reporter) [nM]"
COC[C@H]1C[C@@H](c2nc3ccc4cc(-c5ccc(-c6cnc([C@@H]7CCCN7C(=O)[C@H](NC(=O)CN(C)C)c7ccccc7)[nH]6)cc5)ccc4c3[nH]2)N(C(=O)[C@@H](NC(=O)OC)C(C)C)C1 [Example 476],0.099,0.001 to 0.999,0.001 to 0.99,0.001 to 0.999,0.001 to 0.99,0.001 to 0.999,0.001 to 0.999,,,,,,,,,,
COC[C@H]1C[C@@H](c2nc3ccc4cc(-c5ccc6c(ccc7nc([C@@H]8C[C@H](C)CN8C(=O)[C@@H](NC(=O)OC)C(C)C)[nH]c76)c5)ccc4c3[nH]2)N(C(=O)[C@H](NC(=O)OC)c2ccccc2)C1 [Example 553],0.014,0.001 to 0.999,,,0.001 to 0.99,,0.001 to 0.999,0.001 to 0.99,0.001 to 0.999,0.001 to 0.999,,,,,,,
COC(=O)N[C@H](C(=O)N1CCC[C@H]1c1ncc(-c2ccc3c4c(ccc3c2)-c2ccc(-c3cnc([C@@H]5CCCN5C(=O)[C@@H](NC(=O)OC)C5CCOCC5)[nH]3)cc2CO4)[nH]1)C(C)C [Example 8],,> 44,,,0.001 to 0.99,,> 44,,,,0.006,1 to 4.99,0.001 to 0.999,0.001 to 0.999,,,
CC(C)[C@H](NC(=O)OC(C)(C)C)C(=O)N[C@@H](C(=O)N1CCC[C@H]1c1ncc(-c2cc3c4c(c2)OCc2cc(-c5cnc([C@@H]6CCCN6C(=O)[C@H](NC(=O)[C@@H](NC(=O)OC(C)(C)C)C(C)C)c6ccccc6)[nH]5)cc(c2-4)OC3)[nH]1)c1ccccc1 [Example 485],0.17,> 44,0.001 to 0.99,0.001 to 0.999,0.001 to 0.99,1 to 44,> 44,,,,,,,,,,
COC(=O)N[C@H](C(=O)N1CCC[C@H]1c1nc2ccc3cc(-c4ccc5cc(-c6[nH]c([C@@H]7CCCN7C(=O)[C@H](NC(=O)OC)c7ccccc7)nc6Cl)ccc5c4)ccc3c2[nH]1)C(C)C [Example 385],0.007,1 to 44,0.001 to 0.99,0.001 to 0.999,0.001 to 0.99,0.001 to 0.999,1 to 44,,,,,,,,,,
COC(=O)N[C@@H](C(=O)N1[C@@H](C)CC[C@H]1c1ncc(-c2cc3c4c(c2)OCc2cc(-c5cnc([C@@H]6CC[C@H](C)N6C(=O)[C@H](NC(=O)OC)c6ccccc6)[nH]5)cc(c2-4)OC3)[nH]1)c1ccccc1 [Example 461],0.02,0.001 to 0.999,0.001 to 0.99,0.001 to 0.999,0.001 to 0.99,0.001 to 0.999,1 to 44,,,,,,,,,,
COC[C@H]1C[C@@H](c2ncc(-c3cc4c5c(c3)OCc3cc(-c6cnc([C@@H]7CC[C@H](C)N7C(=O)[C@@H](NC(=O)OC)C(C)C)[nH]6)cc(c3-5)OC4)[nH]2)N(C(=O)[C@@H](NC(=O)OC)C(C)C)C1 [Example 595],0.02,1 to 44,,,0.001 to 0.99,,> 44,0.001 to 0.99,0.001 to 0.999,0.001 to 0.999,,,,,,,
CC(C)CC(=O)N[C@@H](C(=O)N1CCC[C@H]1c1ncc(-c2cc3c4c(c2)OCc2cc(-c5cnc([C@@H]6CCCN6C(=O)[C@H](NC(=O)CC(C)C)c6ccccc6)[nH]5)cc(c2-4)OC3)[nH]1)c1ccccc1 [Example 481],0.058,0.001 to 0.999,0.001 to 0.99,0.001 to 0.999,0.001 to 0.99,0.001 to 0.999,0.001 to 0.999,,,,,,,,,,
COC(=O)N[C@H](C(=O)N1CCC[C@H]1c1nc2ccc3cc(-c4ccc5c(ccc6nc([C@@H]7C[C@@H]8CCC[C@@H]8N7C(=O)[C@@H](NC(=O)OC)C(C)C)[nH]c65)c4)ccc3c2[nH]1)C(C)C [Example 428],0.011,1 to 44,0.001 to 0.99,0.001 to 0.999,0.001 to 0.99,0.001 to 0.999,0.001 to 0.999,,,,,,,,,,
COC(=O)N[C@H](C(=O)N1CCC[C@H]1c1ncc(-c2ccc3cc(-c4ccc5c(c4)CCc4nc([C@@H]6CCCN6C(=O)[C@@H](NC(=O)OC)C6CCOCC6)[nH]c4-5)ccc3c2)[nH]1)C(C)C [Example 198],0.018,> 44,,,0.001 to 0.99,,> 44,,,,,,,,1 to 4.99,0.001 to 0.999,0.001 to 0.999
